In patent US12459951B2, “Compounds that interact with RAS superfamily proteins for treatment of cancers, inflammatory diseases, rasopathies, and fibrotic disease” (SHY Therapeutics, LLC, priority 2022, dated 2025):

Experiments:
JNK phosphorylation = assay: JNK Activation Assay (western blot), Panc-1; format: cell-based, human; conditions: at 10 μM, Panc-1 pancreatic cancer cell line; starred symbols = activation
Protocol: Protocol for JNK Activation Assay
This assay is referred to as the “JNK Activation Assay” throughout this application.
Cell lines: Human tumor-derived pancreatic cancer cell line Panc-1 (expressing KRas […] mutant) was purchased from American Type Culture Collection and grown in complete DMEM-High Glucose medium, supplemented with penicillin (100 U/mL), streptomycin (100 μg/mL), and 10% heat-inactivated FBS at 37° C. in a humidified incubator with 5% CO2.
Method 1: Cells were plated at 350000 cells/well density in a 12-well plate, allowed 3 hours to adhere to the plate, then starved in the appropriate medium in the presence of 0.5% FBS overnight. The small molecules to be tested were added to the cells in the final concentration of 10 μM in the presence of 0.3% DMSO for 6 hours incubation at 37° C. For IC50 value determination, serial dilutions of compounds were added to cells under the same conditions. Next, cells were stimulated with 1.5 ng/ml EGF for 15 minutes then cells were lysed with lysis buffer containing 1% Triton X-100, EDTA, and Halt™ Protease & Phosphatase Inhibitor Cocktail (Thermo Scientific). Protein concentration was assessed by BCA protein assay (Thermo Scientific). Phosphorylation level of JNK was determined by western blot.
Method 2: Cells were plated at 350000 cells/well density in a 12-well plate in the presence of 10% FBS. The next day small molecules to be tested were added to the cells in the final concentration of 10 μM in the presence of 0.3% DMSO for 6 hours incubation at 37° C. For IC50 value determination, serial dilutions of compounds were added to cells under the same conditions. Next, cells were lysed with lysis buffer containing 1% Triton X-100, EDTA, and Halt™ Protease & Phosphatase Inhibitor Cocktail (Thermo Scientific). Protein concentration was assessed by BCA protein assay (Thermo Scientific). Phosphorylation level of JNK was determined by western blot.
(§1) Western blot protocol: Equal amounts of protein (15-50 μg) were separated by SDS-PAGE and transferred to nitrocellulose membranes (Invitrogen by Thermo Fisher Scientific). The membrane was stained with Ponceau S Stain (Boston BioProducts) to verify uniform protein loading. Membranes were blocked with 10% milk and phosphorylation levels of JNK were assessed by incubating overnight at 4° C. with the antibody Phospho-SAPK/JNK (Thr183/Tyr185), from Cell Signaling Technology. Then the membranes were incubated with HRP-conjugated secondary antibody (Jackson Immunoresearch, West Grove, PA). Bands were incubated in Amersham ECL Prime Western Blotting Detection Reagent (GE Healthcare) and visualized using the ChemiDoc MP imaging system (Bio-Rad).

cdc42 = molecular target: T1, cdc42 (Homo sapiens, UniProt P60953); assay: Cdc42 GTP Binding Domain Inhibition Assay; conditions: read-out: Cdc42: % inh.
T1 construct: made in house
Protocol: Protocol for Cdc42 and Rheb GTP Binding Domain Inhibition Assay
The following method was developed as specific assay for cdc42 and Rheb proteins.
• 25 mM Tris-HCl, pH 7.4 • 27 mM KCl • 137 mM NaCl • 1 mM MgCl2 • 1 mM DTT Buffer-II: • 50 mM Tris-HCl, pH 7.0 • 1 mM MgCl2 • 1 mM DTT
The small GTPases proteins cdc42 and Rheb were expressed as His-tagged proteins. For the assay, the cdc42 and Rheb purified small GTPases proteins were diluted in Buffer-I or Buffer-II to a final concentration of 10-30 μg/mL. 200 μL of each diluted protein was added to a nickel-coated 96-well plate and incubated overnight at […]. Then the protein solution was discarded and 200 μL of Buffer-I or Buffer-II was added to each well in the presence of 1% DMSO. Compounds to be tested were added to the protein-coated wells at final concentration of 20 μM, and incubated for 3 hours at room temperature with and without 10-30 μg/mL of Sos added to the final hour of the incubation. When performing IC50 measurements a serial dilution of all tested concentrations was added. Then Cy3-GTP or Cy5-GTP was added to each well to a final concentration of 100 nM. The labeled GTP was incubated for 45 minutes at room temperature. Following GTP incubation, wells were washed 3× in Buffer-I or Buffer-II and 200 μL of Buffer-I or Buffer-II was added to each well. Following washes, the amount of bound labeled-GTP was measured using a SpectraMax M3 (Molecular Devices).

PUMA expression = assay: Cell-based Puma expression assay (western blot); design: species or system human
Protocol: Biological Example 4: Puma Expression and Caspases Activation Assay
Protocols for Cell-Based Puma Expression and Caspase Activation Assays
Cell lines: All human tumor-derived cancer cell lines were purchased from American Type Culture Collection. Human tumor-derived cancer cell lines Panc-1 (expressing KRas G12D mutant), MiaPaca-2 (expressing KRas G12C mutant), A549 (expressing KRas G12S mutant), and A375 (expressing wild type KRas) were grown in complete DMEM-High Glucose medium and NCI-H1975 (expressing wild type KRas), MM.1R (expressing wild type KRas) and IM.9 (expressing wild type KRas) were grown in RPMI1640 medium. Human tumor-derived cancer cell line BT-549 (expressing wild type KRas) was grown in RPMI1640 medium with 11.8U insulin. All mediums were supplemented with penicillin (100 U/mL), streptomycin (100 μg/mL), and 10% heat-inactivated FBS at 37° C. in a humidified incubator with 5% CO2.
Method: Cells were plated at 300,000 to 800,000 cells/well density in a 6-well plate in the presence of 10% FBS. The next day small molecules to be tested were added to the cells in the final concentration of 3 μM in the presence of 0.3% DMSO for 48 hours incubation at 37° C. For IC50 value determination, serial dilutions of compounds were added to cells under the same conditions. Following 48 hours of incubation cells were lysed with lysis buffer containing 1% Triton X-100, EDTA, and Halt™ Protease & Phosphatase Inhibitor Cocktail (Thermo Scientific). Protein concentration was assessed by BCA protein assay (Thermo Scientific). Increase expression of PUMA and active/cleaved forms of caspase 3, caspase 6 and caspase 9 were detected by western blot.
as §1, with “expression” for “phosphorylation”, “PUMA was” for “JNK were”, “PUMA (D30C10)” for “Phospho-SAPK/JNK (Thr183/Tyr185),”, “Technology (#12450) and active/cleaved forms of caspase 3, caspase 6 and caspase 9 by incubating overnight at 4° C. with the following antibodies: cleaved caspase-3 (Asp175) (5A1E), cleaved caspase-6 (Asp162) and cleaved caspase-9 (Asp330) (D2D4) (all antibodies from Cell Signaling Technology).” for “Technology.”

T1 sequence (P60953 whole entry, the tested form may be a part): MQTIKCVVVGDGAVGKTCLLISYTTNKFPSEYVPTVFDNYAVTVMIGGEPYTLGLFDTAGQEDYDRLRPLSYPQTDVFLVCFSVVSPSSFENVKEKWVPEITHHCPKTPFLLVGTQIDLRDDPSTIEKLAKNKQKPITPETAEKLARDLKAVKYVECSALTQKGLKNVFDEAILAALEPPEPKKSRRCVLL

## Cc1c(-c2ccn(C(C)C)n2)cn2nc(-c3ccccn3)nc(O)c12 [Compound 8, 6-(1-Isopropyl-1H-pyrazol-3-yl)-5-methyl-2-(pyridin-2-yl)pyrrolo[2,1-f][1,2,4]triazin-4-ol]
JNK phosphorylation
  % inh of JNK in Panc-1: E* (E* = 1-30% activation)

## COc1cc(Nc2nc(-c3nccn3C)nn3cc(-c4ccccn4)c(C)c23)ncn1 [Compound 94, N-(6-Methoxypyrimidin-4-yl)-5-methyl-2-(1-methyl-1H-imidazol-2-yl)-6-(pyridin-2-yl)pyrrolo[2,1-f][1,2,4]triazin-4-amine]
cdc42
  inhibition at 20 µM: 26 to 49%

## COc1ccnc(Nc2nc(-c3nccn3C)nn3cc(-c4ccn(C(F)F)n4)c(C)c23)n1 [Compound 95, 6-(1-(Difluoromethyl)-1H-pyrazol-3-yl)-N-(4-methoxypyrimidin-2-yl)-5-methyl-2-(1-methyl-1H-imidazol-2-yl)pyrrolo[2,1-f][1,2,4]triazin-4-amine]
cdc42
  inhibition at 20 µM: 50 to 75%

## COc1ccnc(Nc2nc(-c3nccn3C)nn3cc(-c4ccn(C)n4)c(C)c23)c1 [Compound 102, N-(4-Methoxypyridin-2-yl)-5-methyl-2-(1-methyl-1H-imidazol-2-yl)-6-(1-methyl-1H-pyrazol-3-yl)pyrrolo[2,1-f][1,2,4]triazin-4-amine]
PUMA expression; A549, after 48 hours
  Increased PUMA expression: yes
PUMA expression; MiaPaca2, after 48 hours
  Increased PUMA expression: yes

## Cc1c(-c2ccn(C)n2)cn2nc(-c3nccn3C)nc(Nc3cc4n(n3)CCO4)c12 [Compound 124, N-(5-Methyl-2-(1-methyl-1H-imidazol-2-yl)-6-(1-methyl-1H-pyrazol-3-yl)pyrrolo[2,1-f][1,2,4]triazin-4-yl)-2,3-dihydropyrazolo[5,1-b]oxazol-6-amine]
PUMA expression; HCC1806, after 48 hours
  Increased PUMA expression: yes
PUMA expression; MiaPaca2, after 48 hours
  Increased PUMA expression: yes
PUMA expression; NCI-H358, after 48 hours
  Increased PUMA expression: yes

## Cc1c(-c2ccn(C(C)C)n2)cn2nc(-c3nccn3C)nc(Nc3nccn3C)c12 [Compound 93, 6-(1-Isopropyl-1H-pyrazol-3-yl)-5-methyl-N,2-bis(1-methyl-1H-imidazol-2-yl)pyrrolo[2,1-f][1,2,4]triazin-4-amine]
JNK phosphorylation
  % inh of JNK in Panc-1: H* (H* ≥ 100% activation)
cdc42
  inhibition at 20 µM: 76 to 100%

## COc1cc(Nc2nc(-c3nccn3C)nn3cc(-c4ccn(C(C)C)n4)c(C)c23)ncn1 [Compound 6, 6-(1-Isopropyl-1H-pyrazol-3-yl)-N-(6-methoxypyrimidin-4-yl)-5-methyl-2-(1-methyl-1H-imidazol-2-yl)pyrrolo[2,1-f][1,2,4]triazin-4-amine]
JNK phosphorylation
  % inh of JNK in Panc-1: H* (H* ≥ 100% activation)
cdc42
  inhibition at 20 µM: 50 to 75%
PUMA expression; A549, after 48 hours
  Increased PUMA expression: yes
PUMA expression; BT-549, after 48 hours
  Increased PUMA expression: yes
PUMA expression; MiaPaca2, after 48 hours
  Increased PUMA expression: yes

## CO[C@H]1CC[C@@H](Nc2nc(-c3ccccn3)nn3cc(-c4ccn(C(C)C)n4)c(C)c23)C1 (racemic) [Compound 9, rac 6-(1-Isopropyl-1H-pyrazol-3-yl)-N-((1R,3S)-3-methoxycyclopentyl)-5-methyl-2-(pyridin-2-yl)pyrrolo[2,1-f][1,2,4]triazin-4-amine]
JNK phosphorylation
  % inh of JNK in Panc-1: F* (F* = 31-74% activation)
